IC50 data for 22 compounds are collected here from patent US9856279B2 (AGIOS PHARMACEUTICALS, INC, priority 2011, dated 2018).

The target in test [1] is IDH1 R132H (Homo sapiens, UniProt O75874, R132H). The test is described as follows: Assay for IDH1 R132H inhibitors (NADPH/aKG, resazurin detection). Format: biochemical. The following applies: enzyme assay of Example 12; read-out: IDH1R132H IC50. The procedure, abridged: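 Compound added to substrate mix (8 uM NADPH, 2 mM aKG), then enzyme mix (0.2 μg/ml IDH1 R132H); 50 min RT in 20 mM Tris pH 7.5, 150 mM NaCl, 10 mM MgCl2, 0.03% BSA. Resazurin detection mix (30 μM) 5 min RT; resorufin fluorescence Ex544/Em590.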
Chain of IDH1 R132H (O75874 whole entry R132H): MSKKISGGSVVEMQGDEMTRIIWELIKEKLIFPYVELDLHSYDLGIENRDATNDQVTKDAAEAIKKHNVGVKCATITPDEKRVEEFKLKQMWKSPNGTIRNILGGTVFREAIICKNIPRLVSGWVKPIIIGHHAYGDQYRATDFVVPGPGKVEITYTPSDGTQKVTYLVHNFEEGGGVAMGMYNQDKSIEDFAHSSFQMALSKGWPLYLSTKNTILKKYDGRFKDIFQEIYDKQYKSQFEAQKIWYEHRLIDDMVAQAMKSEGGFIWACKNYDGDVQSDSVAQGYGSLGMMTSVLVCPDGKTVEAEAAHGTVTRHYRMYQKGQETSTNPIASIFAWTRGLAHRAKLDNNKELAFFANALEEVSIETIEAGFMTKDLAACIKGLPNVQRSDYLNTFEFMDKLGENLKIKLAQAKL

Test [2] concerns U87MG cells. Put plainly: Cellular assay for IDH1m inhibitors: inhibition of 2-HG production (LC-MS, 48 hours) in U87MG cells. The following applies: Homo sapiens, U-87 MG, inhibition of 2-HG production, U87R132H cells; read-out: U87R132H IC50. Format: cell-based. The procedure, abridged:
(§1)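 Each cell line is plated at 5000 cells/well in DMEM with 10% FBS and left overnight at 37 °C. Test compounds are then added for 48 h, after which 2-HG in the medium is determined by LC-MS; IC50 reflects 50% reduction compared with control.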

Test [3] has as its system HT1080 cells. Put plainly: Cellular assay for IDH1m inhibitors: inhibition of 2-HG production (LC-MS, 48 hours) in HT1080 cells. Format: cell-based. The following applies: Homo sapiens, HT-1080; inhibition of 2-HG production, HT1080 cells; read-out: HT1080 IC50. The procedure, abridged: as §1

Consider `C=Cc1cc(-c2cc(C#N)c(N3CCN(C(=O)C[C@H]4CCO4)[C@H](C)C3)nc2C2CC2)ccn1` [Compound 648, 2-cyclopropyl-6-((R)-3-methyl-4-(2-((R)-oxetan-2-yl)acetyl)piperazin-1-yl)-2′-vinyl-[3,4′-bipyridine]-5-carbonitrile], for which the half-maximal inhibitory concentration (IC50) in test [1], in test [2] and in test [3] was less than 500 nM throughout.
Consider `C=Cc1cc(-c2c(C3CC3)nc(N3CCN(C(=O)CCOC)[C@H](C)C3)c(C#N)c2C)ncn1` [Compound 627, (R)-6-cyclopropyl-2-(4-(3-methoxypropanoyl)-3-methylpiperazin-1-yl)-4-methyl-5-(6-vinylpyrimidin-4-yl)nicotinonitrile], for which the IC50 in test [1], in test [2] and in test [3] was less than 500 nM throughout.
For the compound `COCCC(=O)N1CCN(c2nc(C3CC3)c(-c3cccc(CCO)c3)cc2C#N)C[C@H]1C` [Compound 297, (R)-6-cyclopropyl-5-(3-(2-hydroxyethyl)phenyl)-2-(4-(3-methoxypropanoyl)-3-methylpiperazin-1-yl)nicotinonitrile], the IC50 is less than 500 nM in test [1], 1000 to 10000 nM in test [2] and 500 to 1000 nM in test [3].
Take `COCCC(=O)N1CCN(c2nc(C3CC3)c(-c3ccc4ccccc4c3)c(C)c2C#N)C[C@H]1C` [Compound 267, (R)-6-cyclopropyl-2-(4-(3-methoxypropanoyl)-3-methylpiperazin-1-yl)-4-methyl-5-(naphthalen-2-yl)nicotinonitrile]: the concentration for half-maximal inhibition (IC50) fell in the range of 500 to 1000 nM in test [1], 1000 to 10000 nM in test [2] and 1000 to 10000 nM in test [3].
In the case of `C=Cc1cc(-c2cc(C#N)c(N3CCN(C(=O)CCOC)[C@H](C)C3)nc2C2CC2)c2ccccc2n1` [Compound 592, (R)-6-cyclopropyl-2-(4-(3-methoxypropanoyl)-3-methylpiperazin-1-yl)-5-(2-vinylquinolin-4-yl)nicotinonitrile], the half-inhibitory concentration (IC50) in test [1], in test [2] and in test [3] was less than 500 nM each time.
As to `COCCC(=O)N1CCN(c2nc(C3CC3)c(-c3cccc4cnccc34)cc2C#N)C[C@H]1C1CC1` [Compound 409, (R)-6-cyclopropyl-2-(3-cyclopropyl-4-(3-methoxypropanoyl)piperazin-1-yl)-5-(isoquinolin-5-yl)nicotinonitrile], the half-maximal inhibitory concentration (IC50) in test [1], in test [2] and in test [3] was less than 500 nM each time.
Regarding `C=Cc1cc(-c2cc(C#N)c(N3CCN(C(=O)C4CC4)[C@H](C4CC4)C3)nc2C2CC2)cnn1` [Compound 613, (R)-2-(4-(cyclopropanecarbonyl)-3-cyclopropylpiperazin-1-yl)-6-cyclopropyl-5-(6-vinylpyridazin-4-yl)nicotinonitrile], the half-maximal inhibitory concentration (IC50) in test [1], in test [2] and in test [3] was less than 500 nM in each case.
`C=Cc1cc(-c2cc(C#N)c(N3CCN(C(=O)CC(F)(F)F)[C@H](C)C3)nc2C2CC2)ccn1` [Compound 444, (R)-2-cyclopropyl-6-(3-methyl-4-(3,3,3-trifluoropropanoyl)piperazin-1-yl)-2′-vinyl-3,4′-bipyridine-5-carbonitrile]: the IC50 in test [1], in test [2] and in test [3] was less than 500 nM in each case.
Take `C=Cc1cc(Oc2c(C3CC3)nc(N3CCN(C(=O)CCO)[C@H](C4CC4)C3)c(C#N)c2C)ccn1` [Compound 777, (R)-6-cyclopropyl-2-(3-cyclopropyl-4-(3-hydroxypropanoyl)piperazin-1-yl)-4-methyl-5-((2-vinylpyridin-4-yl)oxy)nicotinonitrile]: the IC50 in test [1], in test [2] and in test [3] was less than 500 nM each time.
Turning to `N#Cc1cc(-c2ccnc(Br)c2)c(C2CC2)nc1N1CCN(C(=O)C2CC2)[C@H](C2CC2)C1` [Compound 508, (R)-2′-bromo-6-(4-(cyclopropanecarbonyl)-3-cyclopropylpiperazin-1-yl)-2-cyclopropyl-3,4′-bipyridine-5-carbonitrile], the concentration for half-maximal inhibition (IC50) in test [1], in test [2] and in test [3] was less than 500 nM each time.
In the case of `C=Cc1cc(Nc2cc(C#N)c(N3CCN(C(=O)CCOC)[C@H](C)C3)nc2C2CC2)ccn1` [Compound 642, (R)-6-cyclopropyl-2-(4-(3-methoxypropanoyl)-3-methylpiperazin-1-yl)-5-((2-vinylpyridin-4-yl)amino)nicotinonitrile], the IC50 in test [1], in test [2] and in test [3] was less than 500 nM throughout.
On to `C=Cc1cc(-c2c(C3CC3)nc(N3CCN(C(=O)CCO)[C@H](C4CC4)C3)c(C#N)c2C)ccn1` [Compound 589, (R)-2-cyclopropyl-6-(3-cyclopropyl-4-(3-hydroxypropanoyl)piperazin-1-yl)-4-methyl-2′-vinyl-3,4′-bipyridine-5-carbonitrile], for which the IC50 in test [1], in test [2] and in test [3] was less than 500 nM throughout.
As for `COCCC(=O)N1CCN(c2nc(C3CC3)c(-c3cccc4cc[nH]c34)cc2C#N)C[C@H]1C` [Compound 373, (R)-6-cyclopropyl-5-(1H-indol-7-yl)-2-[4-(3-methoxy-propionyl)-3-methyl-piperazin-1-yl]-nicotinonitrile], the IC50 in test [1] was less than 500 nM; in test [2] it was 500 to 1000 nM; in test [3], 1000 to 10000 nM.
The like results for `C=Cc1cc(-c2cc(C#N)c(N3CCN(C(=O)CCOC)[C@H](C)C3)nc2C2CC2)c2ccncc2n1` [Compound 580, (R)-6-cyclopropyl-2-(4-(3-methoxypropanoyl)-3-methylpiperazin-1-yl)-5-(2-vinyl-1,7-naphthyridin-4-yl)nicotinonitrile] were, in that order, less than 500 nM, less than 500 nM and less than 500 nM.
With `C=Cc1cc(-c2c(C3CC3)nc(N3CCN(C(=O)CCC4CCO4)[C@H](C4CC4)C3)c(C#N)c2C)ccn1` (stereo partly drawn) [Compound 803, 2-cyclopropyl-6-((3R)-3-cyclopropyl-4-(3-(oxetan-2-yl)propanoyl)piperazin-1-yl)-4-methyl-2′-vinyl-[3,4′-bipyridine]-5-carbonitrile], the IC50 in test [1], in test [2] and in test [3] was less than 500 nM in each case.
Regarding `COCCC(=O)N1CCN(c2nc(C3CC3)c(-c3cccc(NC(=O)C(C)=O)c3)cc2C#N)C[C@H]1C` [Compound 416, (R)—N-(3-(5-cyano-2-cyclopropyl-6-(4-(3-methoxypropanoyl)-3-methylpiperazin-1-yl)pyridin-3-yl)phenyl)-2-oxopropanamide], the IC50 fell in the range of 500 to 1000 nM in test [1], 500 to 1000 nM in test [2] and 1000 to 10000 nM in test [3].
Take `Cc1cc2c(-c3cc(C#N)c(N4CCN(C(=O)C5CC5)[C@H](C5CC5)C4)nc3C3CC3)cccc2cn1` [Compound 458, (R)-2-(4-(cyclopropanecarbonyl)-3-cyclopropylpiperazin-1-yl)-6-cyclopropyl-5-(3-methylisoquinolin-5-yl)nicotinonitrile]: the IC50 in test [1] was less than 500 nM; in test [2] it was 500 to 1000 nM; in test [3], 500 to 1000 nM.
For `N#Cc1cc(-c2cccc3cnccc23)c(C2CC2)nc1N1CCN(C(=O)C2CC2)[C@H](C2CC2)C1` [Compound 391, (R)-2-(4-(cyclopropanecarbonyl)-3-cyclopropylpiperazin-1-yl)-6-cyclopropyl-5-(isoquinolin-5-yl)nicotinonitrile], the results for the 50% inhibitory concentration (IC50) in test [1], in test [2] and in test [3] were less than 500 nM, 500 to 1000 nM and 500 to 1000 nM, respectively.
`C=CC(=O)N1CCC=C(c2c(C3CC3)nc(N3CCN(C(=O)C[C@H]4CCO4)[C@H](C4CC4)C3)c(C#N)c2C)C1` [Compound 789, 5-(1-acryloyl-1,2,5,6-tetrahydropyridin-3-yl)-6-cyclopropyl-2-((R)-3-cyclopropyl-4-(2-((R)-oxetan-2-yl)acetyl)piperazin-1-yl)-4-methylnicotinonitrile]: the IC50 in test [1], in test [2] and in test [3] was less than 500 nM throughout.
As for `C=Cc1ccc2c(-c3cc(C#N)c(N4CCN(C(=O)CCOC)[C@H](C)C4)nc3C3CC3)cccc2n1` [Compound 608, (R)-6-cyclopropyl-2-(4-(3-methoxypropanoyl)-3-methylpiperazin-1-yl)-5-(2-vinylquinolin-5-yl)nicotinonitrile], the IC50 in test [1], in test [2] and in test [3] was less than 500 nM throughout.
Turning to `C=Cc1cc(-c2c(C3CC3)nc(N3CCN(C(=O)CCCO)[C@H](C4CC4)C3)c(C#N)c2C)ccn1` [Compound 770, (R)-2-cyclopropyl-6-(3-cyclopropyl-4-(4-hydroxybutanoyl)piperazin-1-yl)-4-methyl-2′-vinyl-3,4′-bipyridine-5-carbonitrile], the half-maximal inhibitory concentration (IC50) in test [1], in test [2] and in test [3] was less than 500 nM each time.
For `N#Cc1cc(-c2cccc3c(O)nccc23)c(C2CC2)nc1N1CCN(C(=O)CC(F)(F)F)[C@H](C2CC2)C1` [Compound 547, (R)-6-cyclopropyl-2-(3-cyclopropyl-4-(3,3,3-trifluoropropanoyl)piperazin-1-yl)-5-(1-hydroxyisoquinolin-5-yl)nicotinonitrile], the IC50 in test [1], in test [2] and in test [3] was less than 500 nM in each case.
